Experimental data as given in the NIST ThermoML archive (doi:10.1021/je3007953).

Legend:
[1] = xn = mol fraction of the nth substance listed; settings: Liquid, Vibrating tube method
[2] = molar heat capacity at constant pressure; xn = mol fraction of the nth substance listed; settings: Liquid, Small sample (50 mg) DSC

C[n+]1ccn(CCO)c1.[Cl-] [1-(2-hydroxyethyl)-3-methyl-1H-imidazolium chloride] + O
Settings	mass density, x1 = 0.0122 [kg/m3]	mass density, x1 = 0.0453 [kg/m3]	mass density, x1 = 0.0997 [kg/m3]	mass density, x1 = 0.2054 [kg/m3]	mass density, x1 = 0.3071 [kg/m3]	molar heat capacity at constant pressure, x1 = 0.0122 [J/K/mol]	molar heat capacity at constant pressure, x1 = 0.0453 [J/K/mol]	molar heat capacity at constant pressure, x1 = 0.0997 [J/K/mol]	molar heat capacity at constant pressure, x1 = 0.2054 [J/K/mol]	molar heat capacity at constant pressure, x1 = 0.3071 [J/K/mol]
[1], 298.15 K	1016.85	1059.73	1107.52	1136.95	1187.93	–	–	–	–	–
[1], 303.15 K	1015.23	1057.69	1105.14	1134.43	1185.25	–	–	–	–	–
[1], 308.15 K	1013.43	1055.55	1102.71	1131.88	1182.56	–	–	–	–	–
[1], 313.15 K	1011.46	1053.3	1100.22	1129.28	1179.87	–	–	–	–	–
[1], 318.15 K	1009.27	1050.94	1097.68	1126.66	1177.16	–	–	–	–	–
[1], 323.15 K	1005.9	1048.46	1095.08	1123.99	1174.45	–	–	–	–	–
[2], 298.15 K	–	–	–	–	–	75.34	79.99	88.41	107.22	124.59
[2], 303.15 K	–	–	–	–	–	75.7	80.58	89.25	108.22	125.97
[2], 308.15 K	–	–	–	–	–	76.07	81.14	90.1	109.32	127.4
[2], 313.15 K	–	–	–	–	–	76.41	81.68	90.91	110.27	128.97
[2], 318.15 K	–	–	–	–	–	76.86	82.39	91.91	111.66	130.65
[2], 323.15 K	–	–	–	–	–	77.24	83.01	92.79	112.94	132.15
[2], 328.15 K	–	–	–	–	–	77.61	83.57	93.66	114.19	133.71
[2], 333.15 K	–	–	–	–	–	77.97	84.16	94.54	115.52	135.39
[2], 338.15 K	–	–	–	–	–	78.39	84.85	95.51	117	137.33
[2], 343.15 K	–	–	–	–	–	78.9	85.64	96.65	118.67	139.45
[2], 348.15 K	–	–	–	–	–	79.24	86.2	97.49	120.06	141.39
[2], 353.15 K	–	–	–	–	–	79.67	86.89	98.46	121.68	143.57
